Legend:
[1] = molar heat capacity at constant pressure; xn = mol fraction of the nth substance listed; conditions: 101 kPa, Liquid
[2] = xn = mol fraction of the nth substance listed; conditions: 101 kPa, Liquid

CCCC[n+]1cccc(C)c1.F[B-](F)(F)F [1-butyl-3-methylpyridinium tetrafluoroborate] + O
Conditions | mass density, [2] [kg/m3] | molar heat capacity at constant pressure, [1] [J/K/mol]
293.15 K, x1 = 0.0015 | – | 76.7
293.15 K, x1 = 0.002 | – | 77.4
293.15 K, x1 = 0.0027 | – | 77.7
293.15 K, x1 = 0.0036 | – | 78.1
293.15 K, x1 = 0.0102 | – | 81
293.15 K, x1 = 0.0494 | 1066 | –
293.15 K, x1 = 0.0938 | – | 112.7
293.15 K, x1 = 0.0973 | 1095.9 | –
293.15 K, x1 = 0.1885 | – | 142.4
293.15 K, x1 = 0.2312 | 1139.7 | –
293.15 K, x1 = 0.2704 | – | 167
293.15 K, x1 = 0.3559 | 1157.3 | –
293.15 K, x1 = 0.362 | – | 193.8
293.15 K, x1 = 0.4035 | 1161.8 | –
293.15 K, x1 = 0.4454 | – | 218.2
293.15 K, x1 = 0.5195 | 1167.9 | –
293.15 K, x1 = 0.6432 | – | 275.2
293.15 K, x1 = 0.7087 | 1179.5 | –
293.15 K, x1 = 0.7512 | 1181.2 | –
293.15 K, x1 = 0.8094 | – | 325.2
293.15 K, x1 = 0.8791 | – | 346
293.15 K, x1 = 0.8838 | 1183.2 | –
293.15 K, x1 = 0.9468 | – | 367.8
293.15 K, x1 = 1 | 1188.6 | 385.8
298.15 K, x1 = 0.0015 | – | 76.7
298.15 K, x1 = 0.002 | – | 77.4
298.15 K, x1 = 0.0027 | – | 77.7
298.15 K, x1 = 0.0036 | – | 78.2
298.15 K, x1 = 0.0102 | – | 81.1
298.15 K, x1 = 0.0494 | 1063.3 | –
298.15 K, x1 = 0.0938 | – | 113.1
298.15 K, x1 = 0.0973 | 1092.7 | –
298.15 K, x1 = 0.1885 | – | 143.1
298.15 K, x1 = 0.2312 | 1136 | –
298.15 K, x1 = 0.2704 | – | 167.8
298.15 K, x1 = 0.3559 | 1153.6 | –
298.15 K, x1 = 0.362 | – | 195
298.15 K, x1 = 0.4035 | 1158.2 | –
298.15 K, x1 = 0.4454 | – | 219.3
298.15 K, x1 = 0.5195 | 1164.3 | –
298.15 K, x1 = 0.6432 | – | 276.9
298.15 K, x1 = 0.7087 | 1176 | –
298.15 K, x1 = 0.7512 | 1177.8 | –
298.15 K, x1 = 0.8094 | – | 327.3
298.15 K, x1 = 0.8791 | – | 348.3
298.15 K, x1 = 0.8838 | 1179.8 | –
298.15 K, x1 = 0.9468 | – | 370.4
298.15 K, x1 = 1 | 1185.2 | 387.7
303.15 K, x1 = 0.0015 | – | 76.8
303.15 K, x1 = 0.002 | – | 77.5
303.15 K, x1 = 0.0027 | – | 77.7
303.15 K, x1 = 0.0036 | – | 78.2
303.15 K, x1 = 0.0102 | – | 81.2
303.15 K, x1 = 0.0494 | 1060.4 | –
303.15 K, x1 = 0.0938 | – | 113.4
303.15 K, x1 = 0.0973 | 1089.4 | –
303.15 K, x1 = 0.1885 | – | 143.8
303.15 K, x1 = 0.2312 | 1132.3 | –
303.15 K, x1 = 0.2704 | – | 168.6
303.15 K, x1 = 0.3559 | 1150 | –
303.15 K, x1 = 0.362 | – | 196.1
303.15 K, x1 = 0.4035 | 1154.5 | –
303.15 K, x1 = 0.4454 | – | 220.5
303.15 K, x1 = 0.5195 | 1160.8 | –
303.15 K, x1 = 0.6432 | – | 278.6
303.15 K, x1 = 0.7087 | 1172.5 | –
303.15 K, x1 = 0.7512 | 1174.3 | –
303.15 K, x1 = 0.8094 | – | 329.5
303.15 K, x1 = 0.8791 | – | 350.8
303.15 K, x1 = 0.8838 | 1176.3 | –
303.15 K, x1 = 0.9468 | – | 373
303.15 K, x1 = 1 | 1181.7 | 390.1
308.15 K, x1 = 0.0015 | – | 76.9
308.15 K, x1 = 0.002 | – | 77.6
308.15 K, x1 = 0.0027 | – | 77.8
308.15 K, x1 = 0.0036 | – | 78.3
308.15 K, x1 = 0.0102 | – | 81.3
308.15 K, x1 = 0.0494 | 1057.5 | –
308.15 K, x1 = 0.0938 | – | 113.8
308.15 K, x1 = 0.0973 | 1086 | –
308.15 K, x1 = 0.1885 | – | 144.5
308.15 K, x1 = 0.2312 | 1128.7 | –
308.15 K, x1 = 0.2704 | – | 169.5
308.15 K, x1 = 0.3559 | 1146.4 | –
308.15 K, x1 = 0.362 | – | 197.3
308.15 K, x1 = 0.4035 | 1150.9 | –
308.15 K, x1 = 0.4454 | – | 221.7
308.15 K, x1 = 0.5195 | 1157.2 | –
308.15 K, x1 = 0.6432 | – | 280.3
308.15 K, x1 = 0.7087 | 1169.1 | –
308.15 K, x1 = 0.7512 | 1170.8 | –
308.15 K, x1 = 0.8094 | – | 331.7
308.15 K, x1 = 0.8791 | – | 353.3
308.15 K, x1 = 0.8838 | 1172.9 | –
308.15 K, x1 = 0.9468 | – | 375.7
308.15 K, x1 = 1 | 1178.3 | 392.8
313.15 K, x1 = 0.0015 | – | 77
313.15 K, x1 = 0.002 | – | 77.6
313.15 K, x1 = 0.0027 | – | 77.9
313.15 K, x1 = 0.0036 | – | 78.4
313.15 K, x1 = 0.0102 | – | 81.5
313.15 K, x1 = 0.0494 | 1054.5 | –
313.15 K, x1 = 0.0938 | – | 114.2
313.15 K, x1 = 0.0973 | 1082.5 | –
313.15 K, x1 = 0.1885 | – | 145.2
313.15 K, x1 = 0.2312 | 1125 | –
313.15 K, x1 = 0.2704 | – | 170.4
313.15 K, x1 = 0.3559 | 1142.7 | –
313.15 K, x1 = 0.362 | – | 198.4
313.15 K, x1 = 0.4035 | 1147.3 | –
313.15 K, x1 = 0.4454 | – | 222.8
313.15 K, x1 = 0.5195 | 1153.7 | –
313.15 K, x1 = 0.6432 | – | 282.1
313.15 K, x1 = 0.7087 | 1165.6 | –
313.15 K, x1 = 0.7512 | 1167.4 | –
313.15 K, x1 = 0.8094 | – | 334
313.15 K, x1 = 0.8791 | – | 355.8
313.15 K, x1 = 0.8838 | 1169.5 | –
313.15 K, x1 = 0.9468 | – | 378.4
313.15 K, x1 = 1 | 1174.9 | 395.9
318.15 K, x1 = 0.0015 | – | 77.1
318.15 K, x1 = 0.002 | – | 77.7
318.15 K, x1 = 0.0027 | – | 78
318.15 K, x1 = 0.0036 | – | 78.4
318.15 K, x1 = 0.0102 | – | 81.7
318.15 K, x1 = 0.0494 | 1051.3 | –
318.15 K, x1 = 0.0938 | – | 114.7
318.15 K, x1 = 0.0973 | 1079 | –
318.15 K, x1 = 0.1885 | – | 146
318.15 K, x1 = 0.2312 | 1121.2 | –
318.15 K, x1 = 0.2704 | – | 171.4
318.15 K, x1 = 0.3559 | 1139.1 | –
318.15 K, x1 = 0.362 | – | 199.5
318.15 K, x1 = 0.4035 | 1143.7 | –
318.15 K, x1 = 0.4454 | – | 224
318.15 K, x1 = 0.5195 | 1150.2 | –
318.15 K, x1 = 0.6432 | – | 283.8
318.15 K, x1 = 0.7087 | 1162.2 | –
318.15 K, x1 = 0.7512 | 1163.9 | –
318.15 K, x1 = 0.8094 | – | 336.3
318.15 K, x1 = 0.8791 | – | 358.5
318.15 K, x1 = 0.8838 | 1166.1 | –
318.15 K, x1 = 0.9468 | – | 381.3
318.15 K, x1 = 1 | 1171.6 | 399.3
